Experimental findings from patent publication US20150141437A1, “AMIDOPHENOXYPROPANOLAMINES” (MEDIZINISCHE UNIVERSITÄT WIEN, priority 2012, published 2015) are described below.

Assay [1] relates to P. falciparum 3D7 (CQ-sensitive). Briefly: HRP2-based ELISA growth inhibition, 3D7 strain. It is filed as cell-based. As to conditions: Plasmodium falciparum, unmarked values: HRP II ELISA, 72 h. An excerpt:
(§1) Highly sensitive HRP2-based ELISA and [^3H]-hypoxanthine incorporation assay were used as markers for inhibition of parasite growth as previously described (12, 14). A solvent control and a chloroquine (CQ) control were included in the HRP2-based ELISA. CQ, lumefantrine and artesunate were included as controls in the [^3H]-hypoxanthine assay series.
(§2) The assay protocol of the HRP2-based ELISA is described in more detail in the following paragraphs.
(§3) The P. falciparum clones were maintained in continuous culture as described previously (10). Briefly, 3D7 (CQ-sensitive), NF54, and K1 (CQ-resistant) P. falciparum clones were obtained from MR4/American Type Culture Collection, Manassas, Va., USA under the accession numbers MR4-102 (3D7), MRA-1000 (NF54), and MR4-159 (K1). P. falciparum cultures were maintained in 25 cm^2 flasks. Parasites were cultured in RPMI 1640 (Sigma Aldrich, Austria) medium containing 10% human serum at a hematocrit of 5% (blood group 0 negative) at 37° C. under an atmosphere of 5% CO2, 5% O2 and 90% N2. The medium was changed every 24 to 48 hours. The culture was diluted and fresh erythrocytes were added whenever the parasite density reached >1%.
(§4) Stock solutions of compounds of formula I were prepared in DMSO (10 mg/mL). Stock concentrations of chloroquine and lumefantrine always remained 1 mg/mL and were prepared in 70% ethanol. Coating of culture plates with compounds of formula I and controls: 96 wells culture plates were coated as described previously (11). Working standards were prepared by diluting the stock solutions in RPMI1640 to obtain the desired final concentrations. Serial three-fold dilutions (seven concentrations and one drug-free control well) of the drugs (25 μL/well) were dispensed in duplicate into standard 96-well micro culture plates. Chloroquine was included as a reference drug in all experiments.
(§5) After reaching a parasitemia of 5% or higher, 5 mL of cell medium mixture were centrifuged at 700 g for 5 minutes at room temperature (RT). Packed red cells were resuspended in 3 mL of 5% D-sorbitol (Sigma Aldrich, Austria) in water at RT and immediately centrifuged again at 700 g for 5 minutes at RT followed by three washes with 3 mL of RPMI1640 medium. […].
(§6) Samples were diluted with RPMI1640 medium containing 0.5% Albumax II (GIBCO, Invitrogen, Vienna, Austria) by adding uninfected red blood cells to 1.5% hematocrit and 0.05% parasitemia. 150 μL of this cell medium mixture was then added to each well of 96-well plates precoated with test compounds and incubated at 37° C. for 72 hours in a gas mixture containing 5% CO2, 5% O2, and 90% N2. After 72 hours the plates were frozen at −20° C. until the histidine rich protein II assay (23).
(§7) A highly sensitive HRPII ELISA was used based on two commercially available monoclonal antibodies (Immunology Consultants Laboratory, Inc., Newberg, Oreg.) directed against P. falciparum-specific HRPII: MPFM-55A, an immunoglobulin M antibody served as the primary capture antibody and HRP-conjugated MPFG-55P (Immunology Consultants Laboratory, Inc., Newberg, Oreg.) as secondary antibody. The ELISA was employed to assess growth inhibition as a measure of drug susceptibility as previously described. Optical density was measured at 450 nm using a standard ELISA plate reader (12-13).
(§8) Hyperbolic concentration response curves were fitted to the data points by nonlinear least squares using the solver add-in of the Excel software.
(§9) Indicated in TABLE 2 are the IC50 [μM] values for growth inhibition of the 3D7 (NF54) and K1 strains of P. falciparum for the compounds of formula I indicated with their formula numbers in TABLE 2. Unmarked IC50 values for K1 and 3D7 strains of P. falciparum have been determined by HRP II enzyme linked immunosorbent assay (ELISA) as described above. […]
Background: An ELISA detects its analyte on a solid surface through an enzyme-linked reagent.

Assay [2] relates to P. falciparum K1 (CQ-resistant). Briefly: HRP2-based ELISA growth inhibition, K1 strain. As to conditions: Plasmodium falciparum, unmarked values: HRP II ELISA, 72 h. Format: cell-based.
Excerpt: as §1, §2, §3, §4, §5, §6, §7, §8, §9

Molecules are shown by their SMILES.

As for `CCCN(CC(O)COc1ccccc1C(=O)NCc1ccccc1OC)C1C2CC3CC(C2)CC1C3` (stereo not shown) [Compound I-18, 2-[3-(Adamantan-2-yl-propyl-amino)-2-hydroxy-propoxy]-N-(2-methoxy-benzyl)-benzamide], the IC50 (in general, the point on the concentration scale where inhibition reaches its midpoint) was 1570 nM in assay [1] and 349 nM in assay [2].

On to `CCCCCN(CC(O)COc1ccccc1C(=O)NCc1ccccc1)C1C2CC3CC(C2)CC1C3` (stereo not shown) [Compound I-19, 2-[3-(Adamantan-2-yl-pentyl-amino)-2-hydroxy-propoxy]-N-benzyl-benzamide], for which the IC50 is 153 nM in assay [1] and 40 nM in assay [2].

In the case of `O=C(NCc1ccccc1)c1ccccc1OCC(O)CN(C1CC1)C1C2CC3CC(C2)CC1C3` (stereo not shown) [Compound I-20, 2-[3-(Adamantan-2-yl-cyclopropyl-amino)-2-hydroxy-propoxy]-N-benzyl-benzamide], the figures for the IC50 in assay [1] and in assay [2] were 1260 nM and 100 nM, respectively.

With `COc1ccccc1CN(CC(O)COc1ccccc1C(=O)NCc1ccccc1)C1C2CC3CC(C2)CC1C3` (stereo not shown) [Compound I-21, 2-{3-[Adamantan-2-yl-(2-methoxy-benzyl)-amino]-2-hydroxy-propoxy}-N-benzyl-benzamide], the figures for the concentration for half-maximal inhibition (IC50) in assay [1] and in assay [2] were 4120 nM and 613 nM, respectively.

`O=C(NCc1ccccc1)c1ccccc1OCC(O)CN(CCc1ccccc1)C1C2CC3CC(C2)CC1C3` (stereo not shown) [Compound I-22, 2-[3-(Adamantan-2-yl-phenethyl-amino)-2-hydroxy-propoxy]-N-benzyl-benzamide]: the IC50 in assay [1] turned out to be 368 nM; in assay [2], 251 nM.

With `O=C(NCc1ccccc1)c1ccccc1OCC(O)CN(CCCc1ccccc1)C1C2CC3CC(C2)CC1C3` (stereo not shown) [Compound I-23, 2-{3-[Adamantan-2-yl-(3-phenyl-propyl)-amino]-2-hydroxy-propoxy}-N-benzyl-benzamide], the IC50 in assay [1] was 226 nM; in assay [2], 34 nM.

For the molecule `O=C(NCc1ccccc1)c1ccccc1OCC(O)CNCC12CC3CC(CC(C3)C1)C2` (stereo not shown) [Compound I-27, 2-{3-[(Adamantan-1-ylmethyl)-amino]-2-hydroxy-propoxy}-N-benzyl-benzamide], the figures for the concentration for half-maximal inhibition (IC50) in assay [1] and in assay [2] were 177 nM and 50 nM, respectively.

`CC(NCC(O)COc1ccccc1C(=O)NCc1ccccc1)C12CC3CC(CC(C3)C1)C2` (stereo not shown) [Compound I-28, 2-[3-(1-Adamantan-1-yl-ethylamino)-2-hydroxy-propoxy]-N-benzyl-benzamide]: the IC50 was 309 nM in assay [1] and 90 nM in assay [2].

In the case of `COc1ccccc1CNC(=O)c1ccccc1OCC(O)CNCC12CC3CC(CC(C3)C1)C2` (stereo not shown) [Compound I-29, 2-{3-[(Adamantan-1-ylmethyl)-amino]-2-hydroxy-propoxy}-N-(2-methoxy-benzyl)-benzamide], the IC50 in assay [1] was determined as 97 nM; in assay [2] it was 5 nM.

`Cc1ccc(NC(=O)c2ccccc2OCC(O)CNC(C)C23CC4CC(CC(C4)C2)C3)cc1` (stereo not shown) [Compound I-41, 2-[3-(1-Adamantan-1-yl-ethylamino)-2-hydroxy-propoxy]-N-p-tolyl-benzamide]: the 50% inhibitory concentration (IC50) in assay [1] amounted to 70 nM; in assay [2], 12 nM.

As for `C#CCOc1ccc(OCC(O)CNCc2ccc(C3(C(F)(F)F)N=N3)cc2)c(C(=O)NCCC(C)C)c1` (stereo not shown) [Compound I-44, 2-{2-Hydroxy-3-[4-(3-trifluoromethyl-3H-diazirin-3-yl)-benzylamino]-propoxy}-N-(3-methyl-butyl)-5-prop-2-ynyloxy-benzamide], the IC50 came out at 1310 nM in assay [1] and 466 nM in assay [2].

Take `O=C(c1ccccc1)c1ccc(CNCC(O)COc2ccccc2C(=O)NCc2ccccc2)cc1` (stereo not shown) [Compound I-49, 2-[3-(4-Benzoyl-benzylamino)-2-hydroxy-propoxy]-N-benzyl-benzamide]: the IC50 in assay [1] came out at 9300 nM; in assay [2] it was 3230 nM.

As for `O=C(NCc1ccccc1)c1ccccc1OCC(O)CNCCCc1ccccc1` (stereo not shown) [Compound I-50, N-Benzyl-2-[2-hydroxy-3-(3-phenyl-propylamino)-propoxy]-benzamide], the 50% inhibitory concentration (IC50) in assay [1] amounted to 1750 nM; in assay [2], 403 nM.

For `COc1ccc(CNC(=O)c2ccccc2OCC(O)CN2CCN(c3cccc(C)c3C)CC2)cc1` (stereo not shown) [Compound I-51, 2-{3-[4-(2,3-Dimethyl-phenyl)-piperazin-1-yl]-2-hydroxy-propoxy}-N-(4-methoxy-benzyl)-benzamide], the 50% inhibitory concentration (IC50) in assay [1] worked out at 2020 nM; in assay [2] it was 134 nM.

Regarding `O=C(NCc1ccccc1)c1ccccc1OCC(O)CNC1CCCCCCCCCCC1` (stereo not shown) [Compound I-52, N-Benzyl-2-(3-cyclododecylamino-2-hydroxy-propoxy)-benzamide], the IC50 in assay [1] turned out to be 561 nM; in assay [2] it was 52 nM.

Turning to `O=C(NCc1ccccc1)c1ccccc1OCC(O)CNC1CCCCCCC1` (stereo not shown) [Compound I-53, N-Benzyl-2-(3-cyclooctylamino-2-hydroxy-propoxy)-benzamide], the IC50 was found to be 197 nM in assay [1] and 29 nM in assay [2].

Take `CCCNCC(O)COc1ccccc1C(=O)Nc1ccc(C)cc1` (stereo not shown) [Compound I-54, 2-(2-Hydroxy-3-propylamino-propoxy)-N-p-tolyl-benzamide]: the IC50 came to 276 nM in assay [1] and 85 nM in assay [2].

As to `O=C(NCc1ccccc1)c1ccccc1OCC(O)CNCCC12CC3CC(CC(C3)C1)C2` (stereo not shown) [Compound I-62, 2-[3-(2-Adamantan-1-yl-ethylamino)-2-hydroxy-propoxy]-N-benzyl-benzamide], the IC50 in assay [1] is 704 nM; in assay [2], 30 nM.

As to `C#CCOc1cc(CN(CCC)CC(O)COc2ccccc2C(=O)NCc2ccccc2)ccc1OC` (stereo not shown) [Compound I-63, N-Benzyl-2-{2-hydroxy-3-[(4-methoxy-3-prop-2-ynyloxy-benzyl)-propyl-amino]-propoxy}-benzamide], the IC50 in assay [1] was found to be 9490 nM; in assay [2], 982 nM.

As for `CN(CC(O)COc1ccccc1C(=O)NCc1ccc(C(C)(C)C)cc1)C1C2CC3CC(C2)CC1C3` (stereo not shown) [Compound I-64, 2-[3-(Adamantan-2-yl-methyl-amino)-2-hydroxy-propoxy]-N-(4-tert-butyl-benzyl)-benzamide], the IC50 came out at 1480 nM in assay [1] and 397 nM in assay [2].
